From patent US12161641B2, “Treatments and prevention of opioid neonatal abstinence syndrome” (Ohio State Innovation Foundation, priority 2016, dated 2024)

Experiments:
[1] = Time-course of drug levels in adult and embryonic mouse plasma, brain and liver after a single subcutaneous injection (LC-MS/MS); details: for 6β-naltrexol level, Embryo Brain / 6β-naltrexol level, Embryo Liver: dam 10 mg/kg subcutaneously
[2] = adult mice; 10 minutes after injection; cited from earlier work
[3] = Drug levels in plasma, brain and liver during postnatal development; details: for Plasma levels: 45 minutes after single injection; for Brain / Liver / Plasma: single injection
Protocol: Drugs were dissolved in saline at concentrations between 10 and 20 mg/ml, and all dilutions were made in saline. Morphine was purchased from the Ohio State Medical Center pharmacy as a 15 mg/ml solution in saline. Animals were injected subcutaneously in the region around the right hind-quarters. […] After injection and variable survival times adult and pregnant mice were euthanized by cervical dislocation, and brain, liver and plasma were collected, quickly frozen on dry-ice and stored at −70° C. until processing After euthanizing the dam, embryos were collected into a large (150×15 mm) petri dish and kept on ice while maternal tissues were processed. All embryonic tissues were then dissected and collected in a cold room at 4° C. in order to facilitate and preserve tissue integrity during dissection, then stored at −70° C. […] Samples were later thawed, processed and analyzed via liquid chromatography-tandem mass spectrometry (LC-MS/MS) to quantify levels of drug. Detailed methods for tissue processing and LC-MS/MS analysis are located in the supplemental information.

[4] = Cumulative injections of 6β-naltrexol: tissue levels, 1 versus 4 injections; format: in vivo, mice
Protocol: While 6β-naltrexol is relatively excluded from adult brain, it might accumulate slowly upon multiple dosing because of slow exit from the brain. Therefore, experiments were conducted to determine whether 6β-naltrexol accumulates in tissues over time after chronic delivery, and especially through retention in adult brain. After 4 injections of 6β-naltrexol over a 24 hr period (every 6 hrs), 6β-naltrexol levels were measured in fetal and maternal tissues 4 hrs after the last dose, and accumulation assessed in comparison to a single injection with a 4 hr survival. […] However, this was not significant (p>0.2). Also, 6β-naltrexol trended towards greater accumulation in liver than brain (p=0.084 for comparison of adult liver vs adult brain after 4 injections). Likewise, 6β-naltrexol trended towards greater accumulation in embryos than adults (p=0.063 for comparison of fetal vs adult brain after 4 injections).

[5] = 20 min survival, 10 mg/kg subcutaneously
[6] = 45 min survival, 10 mg/kg subcutaneously
[7] = 2 hrs survival, 10 mg/kg subcutaneously
[8] = 4 hrs survival, 10 mg/kg subcutaneously
[9] = non-compartmental, 0 to 240 min, 10 mg/kg subcutaneously

Oc1ccc2c3c1O[C@H]1[C@H](O)CC[C@@]4(O)[C@@H](C2)N(CC2CC2)CC[C@]314 [6β-naltrexol]
fetal brain KP ratio ([1]; 20 min after injection): not significantly different from unity
adult brain KP ratio (brain:plasma) ([1]; 20 min survival): 0.13
fetal brain:maternal plasma KP ratio ([1]; 45 min after drug injection): 2.7
adult brain KP ratio (brain:plasma) ([1]; 45 minutes survival): 0.34
fetal brain:maternal plasma KP ratio ([1]; 120 min after injection): 15.7
brain KP ratio based on AUC's (adult) ([1]; AUC's integrated over 4 hrs): 0.58
KP ratio based on AUC's, adult liver ([1]; AUC-based): 2.6
KP ratio based on AUC's, fetal liver ([1]; AUC-based): 4.3
fetal brain KP ratio based on non-compartmental AUC's ([1]; AUC-based): 3.6
6β-naltrexol level, Adult Brain [1, 5]: 260 ng/g
6β-naltrexol level, Adult Brain [1, 6]: 310 ng/g
6β-naltrexol level, Adult Brain [1, 7]: 230 ng/g
6β-naltrexol level, Adult Brain [1, 8]: 110 ng/g
6β-naltrexol level, Adult Liver [1, 5]: 3570 ng/g
6β-naltrexol level, Adult Liver [1, 6]: 3200 ng/g
6β-naltrexol level, Adult Liver [1, 7]: 530 ng/g
6β-naltrexol level, Adult Liver [1, 8]: 280 ng/g
embryonic brain levels higher than in adult brain, at peak ([1]; at peak, 10 mg/kg subcutaneously): ~9 fold
6β-naltrexol level, Embryo Brain ([1]; 20 min survival): 1350 ng/g
6β-naltrexol level, Embryo Brain ([1]; 45 min survival): 2780 ng/g
6β-naltrexol level, Embryo Brain ([1]; 2 hrs survival): 1370 ng/g
6β-naltrexol level, Embryo Brain ([1]; 4 hrs survival): 210 ng/g
6β-naltrexol level, Embryo Liver ([1]; 20 min survival): 2970 ng/g
6β-naltrexol level, Embryo Liver ([1]; 45 min survival): 4400 ng/g
6β-naltrexol level, Embryo Liver ([1]; 2 hrs survival): 1040 ng/g
6β-naltrexol level, Embryo Liver ([1]; 4 hrs survival): 250 ng/g
AUC for embryonic brain greater than that of adult brain ([1]; non-compartmental, 0 to 240 min): 6 fold
area under the curve (AUC), (maternal) plasma [1, 9]: 83+6×10^3 ng/ml-min
area under the curve (AUC), adult brain [1, 9]: 49+2×10^3 ng/ml-min
area under the curve (AUC), adult liver [1, 9]: 274+36×10^3 ng/ml-min
area under the curve (AUC), embryonic (fetal) brain [1, 9]: 302+60×10^3 ng/ml-min
area under the curve (AUC), embryonic liver [1, 9]: 373+84
6β-naltrexol level, Plasma [1, 5]: 2060 ng/g
6β-naltrexol level, Plasma [1, 6]: 930 ng/g
6β-naltrexol level, Plasma [1, 7]: 90 ng/g
6β-naltrexol level, Plasma [1, 8]: 40 ng/g
brain levels lower than plasma levels [2]: ~10 fold
Plasma levels ([3]; PD7): 3660+350 ng/ml
Brain:Plasma Kp ratio ([3]; PD7, survival time 45 min): 0.86
Liver:Plasma Kp ratio ([3]; PD7, survival time 45 min): 4.3
Brain ([3]; PD7, survival time 45 min): 3030 ± 340 ng/g
Liver ([3]; PD7, survival time 45 min): 15220 ± 1750 ng/g
Plasma ([3]; PD7, survival time 45 min): 3513 ng/mL
Brain:Plasma Kp ratio ([3]; PD14, survival time 45 min): 2
Liver:Plasma Kp ratio ([3]; PD14, survival time 45 min): 3.6
Brain ([3]; PD14, survival time 45 min): 2860 ± 800 ng/g
Liver ([3]; PD14, survival time 45 min): 5050 ± 1260 ng/g
Plasma ([3]; PD14, survival time 45 min): 1410 ± 370 ng/mL
Brain:Plasma Kp ratio ([3]; PD20, survival time 20 min): 0.33
Liver:Plasma Kp ratio ([3]; PD20, survival time 20 min): 1.7
Brain ([3]; PD20, survival time 20 min): 350 ± 20 ng/g
Liver ([3]; PD20, survival time 20 min): 1830 ± 70 ng/g
Plasma ([3]; PD20, survival time 20 min): 1070 ± 100 ng/mL
brain:plasma KP ratios ([3]; PD20 and older): 0.22-0.35
Plasma levels ([3]; PD32): 170+30 ng/ml
Brain:Plasma Kp ratio ([3]; PD32, survival time 20 min): 0.22
Liver:Plasma Kp ratio ([3]; PD32, survival time 20 min): 1.3
Brain ([3]; PD32, survival time 20 min): 260 ± 80 ng/g
Liver ([3]; PD32, survival time 20 min): 1510 ± 640 ng/g
Plasma ([3]; PD32, survival time 20 min): 1160 ± 730 ng/mL
Brain:Plasma Kp ratio ([3]; PD50, survival time 45 min): 0.35
Liver:Plasma Kp ratio ([3]; PD50, survival time 45 min): 1.9
Brain ([3]; PD50, survival time 45 min): 150 ± 10 ng/g
Liver ([3]; PD50, survival time 45 min): 820 ± 80 ng/g
Plasma ([3]; PD50, survival time 45 min): 430 ± 40 ng/mL
Plasma levels ([3]; adults): 930+220 ng/ml
liver:plasma KP ratios ([3]; all ages): 1.3-4.2
increase of 6β-naltrexol after cumulative injections, average for all tissues ([4]; 4 injections over 24 hr vs single injection, 4 hr survival, not significant (p>0.2)): ~1.5 fold
6β-naltrexol level, Adult Brain, 1 injection ([4]; adult brain, 1 injection of 10 mg/kg, 4 hr survival): 110
6β-naltrexol level, Adult Brain, 4 injections in 24 hrs ([4]; adult brain, 4 injections of 10 mg/kg in 24 hrs, 4 hr survival after last dose): 160
6β-naltrexol level, Adult Liver, 1 injection ([4]; adult liver, 1 injection of 10 mg/kg, 4 hr survival): 280
6β-naltrexol level, Adult Liver, 4 injections in 24 hrs ([4]; adult liver, 4 injections of 10 mg/kg in 24 hrs, 4 hr survival after last dose): 360
6β-naltrexol level, Embryo Brain, 1 injection ([4]; embryo brain, 1 injection of 10 mg/kg, 4 hr survival): 210
6β-naltrexol level, Embryo Brain, 4 injections in 24 hrs ([4]; embryo brain, 4 injections of 10 mg/kg in 24 hrs, 4 hr survival after last dose): 290
6β-naltrexol level, Embryo Liver, 1 injection ([4]; embryo liver, 1 injection of 10 mg/kg, 4 hr survival): 250
6β-naltrexol level, Embryo Liver, 4 injections in 24 hrs ([4]; embryo liver, 4 injections of 10 mg/kg in 24 hrs, 4 hr survival after last dose): 500
6β-naltrexol level, Plasma, 1 injection ([4]; plasma, 1 injection of 10 mg/kg, 4 hr survival): 40
6β-naltrexol level, Plasma, 4 injections in 24 hrs ([4]; plasma, 4 injections of 10 mg/kg in 24 hrs, 4 hr survival after last dose): 60
